Key:
SAMP8 mice [1] = test: Novel Object Recognition Protocol Test (NORPT); type: in vivo, mouse; conditions: 12 month-old SAMP8 mice, 1 mg/kg IP every 48 hours for 5 weeks
Experimental: FIG. 1 depicts the effects of a selective A3AR agonist, MRS5980, on learning and memory in 12 month-old SAMP8 mice. The selective A3AR agonist, MRS5980 (1 mg/kg, IP) or vehicle (saline) was given every 48 hours for 5 weeks starting at 12 months of age. Behavioral testing began after 3 weeks of treatment. NORPT—the Novel Object Recognition Protocol Test is a memory task that involves the hippocampus when, as performed herein, the retention interval is 24 hours after initial exposure to the two like objects. Mice received three 5 minutes habituation trials in an empty apparatus separated by 2 hours, the day prior to entry of the objects. During the training session, the mouse was exposed to two similar objects (plastic frogs) which it was allowed to examine for 5 minutes. The apparatus and the objects were cleaned between each trial to remove odor cures. Twenty-four hours later, the mouse was exposed to one of the original objects and a new novel object (plastic bird) and the time spent examining the objects was recorded. The results are expressed as Discrimination index=(Total new−Total old)/Total new+Total old)]. The novel object was made out of the same material as the original object and of the same size, but a different shape. […] Number of attempts before first successful avoidance of the shock in T-maze and retention (memory) for the T-maze one-week later was also determined. […]

SAMP8 mice [2] = test: T-maze shock avoidance, acquisition and one-week retention; type: in vivo, mouse; conditions: 12 month-old SAMP8 mice, 1 mg/kg IP every 48 hours for 5 weeks
Experimental: FIG. 1 depicts the effects of a selective A3AR agonist, MRS5980, on learning and memory in 12 month-old SAMP8 mice. The selective A3AR agonist, MRS5980 (1 mg/kg, IP) or vehicle (saline) was given every 48 hours for 5 weeks starting at 12 months of age. Behavioral testing began after 3 weeks of treatment. NORPT—the Novel Object Recognition Protocol Test is a memory task that involves the hippocampus when, as performed herein, the retention interval is 24 hours after initial exposure to the two like objects. Mice received three 5 minutes habituation trials in an empty apparatus separated by 2 hours, the day prior to entry of the objects. During the training session, the mouse was exposed to two similar objects (plastic frogs) which it was allowed to examine for 5 minutes. The apparatus and the objects were cleaned between each trial to remove odor cures. Twenty-four hours later, the mouse was exposed to one of the original objects and a new novel object (plastic bird) and the time spent examining the objects was recorded. The results are expressed as Discrimination index=(Total new−Total old)/Total new+Total old)]. The novel object was made out of the same material as the original object and of the same size, but a different shape. The underlying concept of the NORPT is based on the tendency of mice to spend more time exploring new objects than familiar ones. Thus, the greater the retention/memory at 24 hours, the more time spent with the new object the higher the discrimination. […] Number of attempts before first successful avoidance of the shock in T-maze and retention (memory) for the T-maze one-week later was also determined. Retention was defined as number of trial to successfully avoid the shock 5 out of 6 consecutive trials. […] ANOVA followed by pairwise Tukey's post hoc test. Means±SEM; n=6-8/group; **p<0.01.

[3] = vs old vehicle treated controls

CNC(=O)[C@@]12C[C@@H]1[C@@H](n1cnc3c(NC)nc(C#Cc4ccc(Cl)s4)nc31)[C@H](O)[C@@H]2O [MRS5980]
Discrimination index (memory at 24 hours) in NORPT (SAMP8 mice [1]; old treated mice vs young mice): no difference between the young mice and the old A3 AR treated mice | Discrimination index (memory at 24 hours) in NORPT (SAMP8 mice [1]; retention interval 24 hours, vs vehicle treated controls, **p<0.01): significantly better memory than vehicle treated controls | T-maze learning and retention (SAMP8 mice [2]; old treated mice vs young vehicle treated controls): no difference between the young vehicle treated controls and the old A3AR treated mice | Number of attempts before first successful avoidance of the shock in T-maze (learning) (SAMP8 mice [2]; [3]): learned and remembered the T-maze better than the old vehicle treated controls | Retention (memory) for the T-maze one-week later, trials to avoid the shock 5 out of 6 consecutive trials (SAMP8 mice [2]; [3]): remembered the T-maze better than the old vehicle treated controls

— US20220218712A1, “TREATMENT OF ALZHEIMER'S DISEASE” (Saint Louis University, priority 2019, published 2022)
